Results published in ChEMBL document CHEMBL5126623, “Dual Targeting of Steroid Sulfatase and 17β-Hydroxysteroid Dehydrogenase Type 1 by a Novel Drug-Prodrug Approach: A Potential Therapeutic Option for the Treatment of Endometriosis” (J Med Chem, 2022).

Key:
Homo sapiens = species: Homo sapiens; assay: Selectivity ratio of IC50 for human placental microsomal fraction 17beta-HSD2 to IC50 for human placental cytosolic fraction 17beta-HSD1
[1] = molecular target: T1, 17-beta-hydroxysteroid dehydrogenase type 1 (Homo sapiens, UniProt P14061); assay: Inhibition of 17beta-HSD1 in human T47D cells using [3H]E1S as substrate measured after 24 hrs by HPLC analysis; format: cell-based
T1 sequence (P14061 whole entry): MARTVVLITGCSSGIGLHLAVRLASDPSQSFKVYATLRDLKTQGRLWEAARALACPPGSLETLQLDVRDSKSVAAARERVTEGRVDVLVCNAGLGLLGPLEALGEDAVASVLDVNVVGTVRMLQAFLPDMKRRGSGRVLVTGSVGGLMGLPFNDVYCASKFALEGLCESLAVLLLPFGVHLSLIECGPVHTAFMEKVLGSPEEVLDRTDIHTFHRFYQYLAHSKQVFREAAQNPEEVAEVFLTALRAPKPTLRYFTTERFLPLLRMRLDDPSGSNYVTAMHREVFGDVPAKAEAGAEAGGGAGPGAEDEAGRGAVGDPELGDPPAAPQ

[2] = molecular target: T2, 17-beta-hydroxysteroid dehydrogenase type 2 (Homo sapiens, UniProt P37059); assay: Inhibition of human placental microsomal fraction 17beta-HS2 using [3H]-E2 as substrate in presence of NAD+ measured after 10 mins by HPLC method; format: subcellular, Placenta, Microsome
T2 sequence (P37059 whole entry): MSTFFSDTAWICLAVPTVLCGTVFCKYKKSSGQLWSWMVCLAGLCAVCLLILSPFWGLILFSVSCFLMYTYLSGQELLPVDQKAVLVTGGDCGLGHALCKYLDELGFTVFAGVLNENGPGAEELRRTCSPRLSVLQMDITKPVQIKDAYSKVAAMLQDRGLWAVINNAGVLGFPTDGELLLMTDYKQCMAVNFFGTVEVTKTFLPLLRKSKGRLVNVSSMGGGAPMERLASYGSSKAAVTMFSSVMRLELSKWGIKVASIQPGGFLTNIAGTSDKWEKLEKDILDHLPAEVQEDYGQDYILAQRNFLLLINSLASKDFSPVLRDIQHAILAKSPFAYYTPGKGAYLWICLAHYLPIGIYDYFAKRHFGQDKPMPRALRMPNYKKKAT

[3] = molecular target: T1, 17-beta-hydroxysteroid dehydrogenase type 1; assay: Inhibition of human placental cytosolic fraction 17beta-HSD1 using [3H]-E1 as substrate in presence of NADH measured after 10 mins by HPLC method; format: subcellular, Placenta, Cytosol
Steryl-sulfatase [4] = molecular target: T3, Steryl-sulfatase (Homo sapiens, UniProt P08842); assay: Inhibition of STS in human T47D cells using [3H]E1S as substrate measured after 24 hrs by HPLC analysis; format: cell-based
T3 sequence (P08842 whole entry): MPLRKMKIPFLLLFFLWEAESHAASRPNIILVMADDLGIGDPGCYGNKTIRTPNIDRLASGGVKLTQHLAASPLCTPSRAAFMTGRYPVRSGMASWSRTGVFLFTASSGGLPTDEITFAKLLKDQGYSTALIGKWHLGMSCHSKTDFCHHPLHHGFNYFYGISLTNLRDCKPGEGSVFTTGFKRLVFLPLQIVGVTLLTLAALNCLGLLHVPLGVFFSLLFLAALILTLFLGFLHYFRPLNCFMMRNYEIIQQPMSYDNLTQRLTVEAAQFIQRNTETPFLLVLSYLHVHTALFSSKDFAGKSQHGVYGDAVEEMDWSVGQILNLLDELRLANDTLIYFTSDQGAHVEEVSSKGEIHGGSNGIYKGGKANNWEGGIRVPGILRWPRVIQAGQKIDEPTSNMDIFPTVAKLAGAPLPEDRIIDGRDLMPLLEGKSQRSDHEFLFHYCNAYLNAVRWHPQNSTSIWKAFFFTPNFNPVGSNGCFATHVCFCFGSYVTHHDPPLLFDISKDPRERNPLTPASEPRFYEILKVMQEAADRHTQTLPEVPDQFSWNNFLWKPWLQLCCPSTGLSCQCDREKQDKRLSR

[5] = Metabolic stability in mouse liver S9 fraction assessed as half life at 1 uM in presence of NADPH measured upto 60 min by LC-MS/MS analysis; format: ADME, subcellular
[6] = Metabolic stability in mouse liver S9 fraction assessed as intrinsic clearance at 1 uM in presence of NADPH measured upto 60 min by LC-MS/MS analysis; format: ADME, subcellular; conditions: s9, 1 h
Steryl-sulfatase [7] = molecular target: T3, Steryl-sulfatase; assay: Irreversible inhibition of STS in human T47D cells using [3H]E1S as substrate measured after 24 hrs by HPLC analysis; format: cell-based
[8] = Metabolic stability in human liver S9 fraction assessed as half life at 1 uM in presence of NADPH measured upto 60 min by LC-MS/MS analysis; format: ADME, subcellular
[9] = Metabolic stability in human liver S9 fraction assessed as intrinsic clearance at 1 uM in presence of NADPH measured upto 60 min by LC-MS/MS analysis; format: ADME, subcellular; conditions: s9, 1 h
[10] = Cytotoxicity against human HEK293 cells assessed as cell growth inhibition at 20 uM measured at 48 hrs bt MTT assay relative to control; format: toxicity, cell-based
[11] = Stability of compound in phosphate buffer measured after 24 hrs by LC-MS/MS analysis; format: physicochemical; conditions: read-out: Stability
[12] = molecular target: T4, 17-beta-hydroxysteroid dehydrogenase type 1 (Homo sapiens) (UniProt P14061); conditions: dose 50.0 nM, time 6.5 hrs
T4 sequence (whole entry): T1 sequence (P14061 whole entry)
Description: Inhibition of human placental cytosolic fraction 17beta-HSD1 at 50 nM using [3H]-E1 as substrate in presence of NADH measured after 6.5 hrs by LC-MS/MS method

[13] = Stability in human T47D cells cultured in DMEM medium measured after 24 hrs by LC-MS/MS analysis; format: ADME, cell-based; conditions: read-out: Stability
[14] = molecular target: T4, 17-beta-hydroxysteroid dehydrogenase type 1 (Homo sapiens); assay: Inhibition of human 17beta-HSD1 at 50 nM using [3H]-E1 as substrate measured after 13.5 hrs in presence of NADH by LC-MS/MS analysis
[15] = molecular target: T4, 17-beta-hydroxysteroid dehydrogenase type 1 (Homo sapiens); conditions: dose 50.0 nM, time 24.0 hrs

Ratio IC50 (Homo sapiens)	IC50 [1] [nM]	IC50 [2] [nM]	IC50 [3] [nM]	IC50 (Steryl-sulfatase [4]) [nM]	Compound	further results
150	8.6				Cc1cc(-c2ccc(C(=O)N(C)c3ccccc3C)o2)ccc1O	
10	120	3200	310		Cc1cccc(F)c1N(C)C(=O)c1ccc(-c2ccc(O)cc2)o1	
85	10		11		Cc1ccccc1N(C)C(=O)c1ccc(-c2ccc(O)c(F)c2)o1	
				270	Cc1ncccc1N(C)C(=O)c1ccc(-c2ccc(OS(N)(=O)=O)cc2)o1	
				17	Cc1ccccc1N(C)C(=O)c1ccc(-c2ccc(OS(N)(=O)=O)c(F)c2)o1	half-life at 1 µM [5]: 6.1 min; intrinsic clearance [6]: 140 µL/min/mg; IC50 (Steryl-sulfatase [7]): 17 nM; half-life at 1 µM [8]: 43 min; intrinsic clearance [9]: 16 µL/min/mg
23	50	3900	170		Cc1c(F)cccc1N(C)C(=O)c1ccc(-c2ccc(O)cc2)o1	
				130	Cc1ccccc1N(C)C(=O)c1cnc(-c2ccc(OS(N)(=O)=O)cc2)s1	
115	12	3900	34		Cc1ccccc1N(C)C(=O)c1csc(-c2ccc(O)cc2)n1	
> 40	110	> 10000	250		Cc1ccccc1N(C)C(=O)c1coc(-c2ccc(O)cc2)n1	
				27	Cc1ccccc1N(C)C(=O)c1ccc(-c2ccc(OS(N)(=O)=O)cc2Cl)o1	half-life at 1 µM [5]: 20 min; intrinsic clearance [6]: 39 µL/min/mg; IC50 (Steryl-sulfatase [7]): 29 nM; inhibition at 48 h, 20 µM [10]: 11.7%; half-life at 1 µM [8]: 39 min; intrinsic clearance [9]: 18 µL/min/mg
				820	Cc1ccncc1N(C)C(=O)c1ccc(-c2ccc(OS(N)(=O)=O)cc2)o1	
				60	Cc1ccccc1N(C)C(=O)c1coc(-c2ccc(OS(N)(=O)=O)cc2)n1	half-life at 1 µM [5]: 47 min; intrinsic clearance [6]: 15 µL/min/mg; IC50 (Steryl-sulfatase [7]): 68 nM; half-life at 1 µM [8]: 180 min; intrinsic clearance [9]: 3.9 µL/min/mg
				1100	Cc1ccccc1N(C)C(=O)c1nnc(-c2ccc(OS(N)(=O)=O)cc2)o1	
				570	Cc1cc(-c2ccc(C(=O)N(C)c3ccccc3C)o2)ccc1OS(N)(=O)=O	
				28	Cc1ccccc1N(C)C(=O)c1ccc(-c2ccc(OS(N)(=O)=O)cc2)o1	remaining at 24 h [11]: 40%; inhibition [12]: 50%; half-life at 1 µM [5]: 25 min; intrinsic clearance [6]: 31 µL/min/mg; remaining at 24 h [13]: 94%; IC50 (Steryl-sulfatase [7]): 31 nM; inhibition at 48 h, 20 µM [10]: 11.7%; half-life at 1 µM [8]: 47 min; intrinsic clearance [9]: 15 µL/min/mg
				14	Cc1cc(F)ccc1N(C)C(=O)c1ccc(-c2ccc(OS(N)(=O)=O)cc2)o1	half-life at 1 µM [5]: 4.6 min; intrinsic clearance [6]: 150 µL/min/mg; IC50 (Steryl-sulfatase [7]): 15 nM; half-life at 1 µM [8]: 44 min; intrinsic clearance [9]: 16 µL/min/mg
				690	Cc1ccccc1N(C)C(=O)c1ccc(-c2cccc(OS(N)(=O)=O)c2)o1	
				25	Cc1ccccc1N(C)C(=O)c1ccc(-c2ccc(OS(N)(=O)=O)c(Cl)c2)o1	half-life at 1 µM [5]: 31 min; intrinsic clearance [6]: 24 µL/min/mg; IC50 (Steryl-sulfatase [7]): 27 nM; inhibition at 48 h, 20 µM [10]: 55%; half-life at 1 µM [8]: 48 min; intrinsic clearance [9]: 15 µL/min/mg
> 5.2	1900	> 10000	1900		Cc1ccccc1N(C)C(=O)c1ccc(-c2ccccc2O)o1	
74	7.6	1700	23		Cc1cc(F)ccc1N(C)C(=O)c1ccc(-c2ccc(O)cc2)o1	

Ratio IC50 (Homo sapiens)	IC50 [1] [nM]	IC50 [2] [nM]	IC50 [3] [nM]	IC50 (Steryl-sulfatase [4]) [nM]	Compound	further results
> 3	1100	> 10000	3300		Cc1cccnc1N(C)C(=O)c1ccc(-c2ccc(O)cc2)o1	
				27	Cc1c(F)cccc1N(C)C(=O)c1ccc(-c2ccc(OS(N)(=O)=O)cc2)o1	half-life at 1 µM [5]: 4.8 min; intrinsic clearance [6]: 150 µL/min/mg; IC50 (Steryl-sulfatase [7]): 25 nM; half-life at 1 µM [8]: 21 min; intrinsic clearance [9]: 29 µL/min/mg
				12	Cc1ccccc1N(C)C(=O)c1ccc(-c2ccc(OS(N)(=O)=O)cc2F)o1	half-life at 1 µM [5]: 23 min; intrinsic clearance [6]: 38 µL/min/mg; IC50 (Steryl-sulfatase [7]): 16 nM; half-life at 1 µM [8]: 51 min; intrinsic clearance [9]: 14 µL/min/mg
54	12	2200	41		Cc1ccc(F)cc1N(C)C(=O)c1ccc(-c2ccc(O)cc2)o1	
					O=c1ccc2ccc(O)cc2o1 [UMBELLIFERONE]	intrinsic clearance [6]: 280 µL/min/mg; intrinsic clearance [9]: 140 µL/min/mg
				1100	Cc1cccnc1N(C)C(=O)c1ccc(-c2ccc(OS(N)(=O)=O)cc2)o1	
				40	Cc1ccc(F)cc1N(C)C(=O)c1ccc(-c2ccc(OS(N)(=O)=O)cc2)o1	half-life at 1 µM [5]: 3.9 min; intrinsic clearance [6]: 180 µL/min/mg; half-life at 1 µM [8]: 34 min; intrinsic clearance [9]: 21 µL/min/mg
> 190	43	> 30000	160		Cc1ncccc1N(C)C(=O)c1ccc(-c2ccc(O)cc2)o1	
74	52				Cc1ccccc1N(C)C(=O)c1ccc(-c2ccc(O)c(Cl)c2)o1	inhibition at 48 h, 20 µM [10]: 55%
				63	Cc1ccccc1N(C)C(=O)c1csc(-c2ccc(OS(N)(=O)=O)cc2)n1	half-life at 1 µM [5]: 15 min; intrinsic clearance [6]: 46 µL/min/mg; IC50 (Steryl-sulfatase [7]): 60 nM; half-life at 1 µM [8]: 50 min; intrinsic clearance [9]: 14 µL/min/mg
				150	Cc1cccc(F)c1N(C)C(=O)c1ccc(-c2ccc(OS(N)(=O)=O)cc2)o1	
> 77	64	> 20000	260		Cc1ccncc1N(C)C(=O)c1ccc(-c2ccc(O)cc2)o1	
19	29	2800	150		Cc1ccccc1N(C)C(=O)c1ccc(-c2cccc(O)c2)o1	
					NS(=O)(=O)Oc1ccc2c3c(c(=O)oc2c1)CCCCC3 [IROSUSTAT]	half-life at 1 µM [5]: 3 min
42	10				Cc1ccccc1N(C)C(=O)c1ccc(-c2ccc(O)cc2F)o1	
51	21				Cc1ccccc1N(C)C(=O)c1ccc(-c2ccc(O)cc2)o1	inhibition [14]: 50%; inhibition [15]: < 60%
7.5	340	4500	600		Cc1ccccc1N(C)C(=O)c1cnc(-c2ccc(O)cc2)s1	
13	320	6200	490		Cc1ccccc1N(C)C(=O)c1nnc(-c2ccc(O)cc2)o1	
13	14				Cc1ccccc1N(C)C(=O)c1ccc(-c2ccc(O)cc2Cl)o1	
